The text below walks through data of patent publication US9067898B1, “Isothiazole derivatives as GPR120 agonists for the treatment of type II diabetes” (Janssen Pharmaceutica NV, priority 2014, dated 2015).

One may read the EC50 as the concentration at which the effect is half-maximal.

For one assay, the target named is T1, Human GPR120 short form (Homo sapiens, UniProt Q5NUL3).
T1 construct: expressed in transfected cells
T1 sequence (Q5NUL3 1-361): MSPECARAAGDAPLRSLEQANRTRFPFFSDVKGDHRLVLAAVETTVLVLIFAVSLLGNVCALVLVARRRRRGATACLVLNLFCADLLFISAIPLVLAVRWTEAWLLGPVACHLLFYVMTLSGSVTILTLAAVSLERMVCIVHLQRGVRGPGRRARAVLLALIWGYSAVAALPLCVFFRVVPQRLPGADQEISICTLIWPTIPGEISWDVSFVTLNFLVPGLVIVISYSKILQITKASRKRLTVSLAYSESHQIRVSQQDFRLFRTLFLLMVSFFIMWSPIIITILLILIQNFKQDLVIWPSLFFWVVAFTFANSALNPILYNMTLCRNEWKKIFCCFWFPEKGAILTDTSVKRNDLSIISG
Description: Human GPR120 calcium flux assay (FLIPR), Procedure Calcium A. It counts as cell-based. Conditions: HEK-293 cells expressing human GPR120 short form, 2500 cells/well; read-out: GPR120 Ca2+ Assay A EC50. A digest of the protocol:
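HEK293 cells stably expressing the short isoform (NM_001195755.1), 2500/well, starved 1 h, then loaded with Fluo-4 NW plus probenecid (30 min 37 °C, 15 min RT). Compound solutions 0.012–100 μM, 0.2% DMSO final; FLIPR read 300 s after addition. EC50 from Fmax−Fmin fitted to variable-slope sigmoid (Hill <2).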
A general note: Calcium assays in cells follow changes in intracellular calcium, usually with a dye or a luminescent sensor.

The target in assay [1] is T2, long form of human GPR120 (Homo sapiens, UniProt Q5NUL3).
T2 construct: host or cells: PathHunter CHO-K1 GPR120 β-Arrestin Cell Line
T2 sequence (Q5NUL3 1-377 isoform Q5NUL3-1): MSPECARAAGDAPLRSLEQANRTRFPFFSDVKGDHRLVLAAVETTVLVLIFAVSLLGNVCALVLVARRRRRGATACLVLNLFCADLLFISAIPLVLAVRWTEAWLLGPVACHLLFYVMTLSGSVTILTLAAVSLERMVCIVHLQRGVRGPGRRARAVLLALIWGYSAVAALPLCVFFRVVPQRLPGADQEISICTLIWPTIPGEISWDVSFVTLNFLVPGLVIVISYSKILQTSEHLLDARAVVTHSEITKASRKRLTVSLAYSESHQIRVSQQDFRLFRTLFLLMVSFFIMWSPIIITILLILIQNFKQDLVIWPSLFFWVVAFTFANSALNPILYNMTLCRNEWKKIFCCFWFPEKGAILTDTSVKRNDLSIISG
T2 sequence (P32121 whole entry partner): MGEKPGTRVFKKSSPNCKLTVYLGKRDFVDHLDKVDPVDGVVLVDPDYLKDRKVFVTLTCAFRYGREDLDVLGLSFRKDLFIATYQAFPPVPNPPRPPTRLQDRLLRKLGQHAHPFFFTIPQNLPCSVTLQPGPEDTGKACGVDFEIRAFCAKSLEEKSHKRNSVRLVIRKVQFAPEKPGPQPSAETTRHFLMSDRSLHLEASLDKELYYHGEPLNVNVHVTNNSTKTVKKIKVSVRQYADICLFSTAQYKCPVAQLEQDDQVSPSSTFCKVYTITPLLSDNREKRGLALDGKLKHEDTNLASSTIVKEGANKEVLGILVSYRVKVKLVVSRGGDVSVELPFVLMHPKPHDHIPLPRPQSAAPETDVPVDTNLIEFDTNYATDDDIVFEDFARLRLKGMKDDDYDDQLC
Briefly: Human GPR120 DiscoveRx PathHunter Beta-Arrestin assay, Procedure β-arrestin A. Type of assay: cell-based. Conditions: PathHunter CHO-K1 GPR120 β-Arrestin cell line, 3000 cells per well, read-out: hGPR120 β-arrestin A EC50. The source says: The binding of an agonist (medium/long chain fatty acids or small molecule agonists) to the G-protein-coupled receptor GPR120 activates phospholipase C, leading to release of intracellular Ca^+2 through the generation of inositol 1,4,5-trisphosphate (InsP3 or IP3). GPR120 activation can also trigger intracellular signaling via recruitment of Beta-Arrestin. In the present method, agonist-induced activation of the human GPR120 receptor is monitored through the use of PathHunter CHO-K1 GPR120 Beta-Arrestin Cell Line engineered by DiscoveRx, as detailed below. The cell lines are designed to co-express both the ProLink/Enzyme Donor (PK)-tagged GPCR and the Enzyme […] (EA)-tagged Beta-Arrestin fusion proteins. Upon GPR120 receptor stimulation/activation, the EA-tagged Beta-Arrestin portion is translocated to the tagged receptor, where the two enzyme fragments are brought within close proximity. Under these conditions, these fragments can interact and form an active Beta-gal enzyme complex through Enzyme Fragment Complementation (EFC). This active Beta-gal complex can enzymatically hydrolyse the substrate to produce a detectable light signal; therefore, activation as a function of agonist concentration can be expressed as an EC50 value to determine relative compound activities. This in vitro assay therefore serves to assess compound agonist activity of the GPR120. Procedure β-Arrestin A: In Procedure β-arrestin A, the cell used were PathHunter CHO-K1 GPR120 β-Arrestin Cell Line, expressing the long form of human GPR120 (Genbank accession number NM 181745), with 3000 cells per well. Procedure β-Arrestin B: In Procedure 3-arrestin B the cells used were PathHunter CHO-K1 GPR120S β-Arrestin Cell Line, expressing the short form of the GPR120 receptor (Accession #NM_181745), with 5000 cells/well. Assay Procedure:
The selected CHO-K1 GPR120 β-Arrestin cells were cultured in Ham's F12 media supplemented with 10% fetal bovine serum (FBS), 1% Glutamine, lx p/s, 800 μg/mL G418 and 300 μg/mL Hygromycin B (for selection). Cell stocks were maintained and grown in a sub-confluent state using standard cell culture procedures. The day before the experiment, the cells were harvested with non-enzymatic cell dissociation buffer and re-suspended in complete growth media at the desired concentration. A Corning 384-plate was then seeded with the proper number of cells in a volume of 25 μL, per well. The seeded plates were incubated overnight at 37° C.
On the day of the experiment, the Assay Buffer containing (a) HBSS with Ca^++ and Mg^++, (b) 20 mM HEPES, and (c) 0.1% BSA stabilizer (pH 7.4) was prepared. The growth medium was gently removed from the cell plates and 20 μL of Assay Buffer added to each well. The plate was then incubated at 37° C. for 60 min. Test compounds were serially diluted in Assay Buffer to desired concentrations (more particularly to one or more of the following μM concentrations: 25, 12.5, 6.25, 3.125, 1.5625, 0.78125, 0.390625, 0.1953125, 0.09765625, 0.048828125, 0.024414063, 0.012207031). Five μL of compound dilution was then added to each well and the plate incubated at 37° C. for 90 min. The detection reagents were prepared according to the manufacture's instruction. Twelve μL of the detection reagents were added to each well and the plate incubated at room temperature for 60 min.
The plates were read on an EnVision instrument, using Protocol name: Luminescence, Plate type: 384 Costar, Measurement height: 3 mm, Measurement time: 1 s, Aperture: 384 Plate aperture. The % activity relative to the positive control was calculated using the following equation:
The % Activity values were plotted versus the concentration of test compound and fitted to a sigmoidal dose-response curve with a Hill slope=1 (fixed value) using nonlinear regression with GraphPad Prism 5.0 to calculate the EC50 values. […]

For the compound `CCc1ccc(-c2cc(Cl)sc2COc2ccc(CCCO)c(F)c2F)cc1` [Cpd 14, 3-(4-[[5-chloro-3-(4-ethylphenyl)thiophen-2-yl]methoxy]-2,3-difluorophenyl)propan-1-ol], the EC50 on Human GPR120 short form came to 163 nM; in assay [1], 265 nM.

In the case of `OCCCc1cc(F)c(OCc2sc(Cl)cc2-c2ccc(Cl)cc2)c(F)c1` [Cpd 19, 3-(4-[[5-chloro-3-(4-chlorophenyl)thiophen-2-yl]methoxy]-3,5-difluorophenyl)propan-1-ol], the results for the EC50 (on Human GPR120 short form; in assay [1]) were 634 nM and 108 nM, respectively.

`CCc1ccc(-c2ccsc2COc2c(F)cc(CCCO)cc2F)cc1` [Cpd 20, 3-(4-[[3-(4-ethylphenyl)thiophen-2-yl]methoxy]-3,5-difluorophenyl)propan-1-ol]: the EC50 was found to be 657 nM at Human GPR120 short form and 168 nM in assay [1].

For `O=C(O)CCc1cc(F)c(OCc2c(C3=CCCC3)csc2C(F)(F)F)c(F)c1` [Cpd 31, 3-(4-((4-(cyclopent-1-en-1-yl)-2-(trifluoromethyl)thiophen-3-yl)methoxy)-3,5-difluorophenyl)propanoic acid], the figures for the EC50 (at Human GPR120 short form; in assay [1]) were 46 nM and 503 nM, respectively.

Take `CCc1ccc(-c2sc(C)c(C(F)(F)F)c2COc2c(F)cc(CCCO)cc2F)cc1` [Cpd 32, 3-(4-[[2-(4-ethylphenyl)-5-methyl-4-(trifluoromethyl)thiophen-3-yl]methoxy]-3,5-difluorophenyl)propan-1-ol]: the concentration giving a half-maximal response (EC50) at Human GPR120 short form is 48 nM; in assay [1], 31 nM.

As to `COc1ccc(-c2csc(C(F)(F)F)c2COc2c(F)cc(CCC(=O)O)cc2F)cc1` [Cpd 34, 3-(3,5-difluoro-4-((4-(4-methoxyphenyl)-2-(trifluoromethyl)thiophen-3-yl)methoxy)phenyl)propanoic acid], the EC50 came to 65 nM on Human GPR120 short form and 208 nM in assay [1].

On to `O=C(O)CCc1cc(F)c(OCc2c(-c3ccc(Cl)cc3)csc2C(F)(F)F)c(F)c1` [Cpd 35, 3-(4-((4-(4-chlorophenyl)-2-(trifluoromethyl)thiophen-3-yl)methoxy)-3,5-difluorophenyl)propanoic acid], for which the EC50 at Human GPR120 short form is 70 nM; in assay [1], 270 nM.

`COc1ccc(-c2csc(C(F)(F)F)c2COc2c(F)cc(CCCO)cc2F)cn1` [Cpd 38, 3-(3,5-difluoro-4-((4-(6-methoxypyridin-3-yl)-2-(trifluoromethyl)thiophen-3-yl)methoxy)phenyl)propan-1-61]: the EC50 turned out to be 101 nM on Human GPR120 short form and 71 nM in assay [1].

With `CCc1ccc(-c2cscc2COc2ccc(CCC(=O)O)c(C)c2C)cc1` [Cpd 41, 3-(4-((4-(4-ethylphenyl)thiophen-3-yl)methoxy)-2,3-dimethylphenyl)propanoic acid], the EC50 at Human GPR120 short form was found to be 142 nM; in assay [1] it was 711 nM.

`COc1ccc(-c2csc(C(F)(F)F)c2COc2c(F)cc(CCC(=O)O)cc2F)cn1` [Cpd 42, 3-(3,5-difluoro-4-((4-(6-methoxypyridin-3-yl)-2-(trifluoromethyl)thiophen-3-yl)methoxy)phenyl)propanoic acid]: the EC50 on Human GPR120 short form was found to be 143 nM; in assay [1], 445 nM.

With `CCc1ccc(-c2cscc2COc2ccc(CCC(=O)O)c(F)c2F)cc1` [Cpd 43, 3-(4-((4-(4-ethylphenyl)thiophen-3-yl)methoxy)-2,3-difluorophenyl)propanoic acid], the EC50 on Human GPR120 short form is 147 nM; in assay [1] it was 591 nM.

With `O=C(O)CCc1cc(F)c(OCc2c(-c3ccc4c(c3)OCO4)csc2C(F)(F)F)c(F)c1` [Cpd 44, 3-(4-((4-(benzo[d][1,3]dioxol-5-yl)-2-(trifluoromethyl)thiophen-3-yl)methoxy)-3,5-difluorophenyl)propanoic acid], the EC50 at Human GPR120 short form is 152 nM; in assay [1], 456 nM.

Consider `COc1ccc(-c2csc(C(F)(F)F)c2COc2c(F)cc(CCCO)cc2F)cc1` [Cpd 45, 3-(3,5-difluoro-4-((4-(4-methoxyphenyl)-2-(trifluoromethyl)thiophen-3-yl)methoxy)phenyl)propan-1-ol], for which the EC50 was 154 nM at Human GPR120 short form and 123 nM in assay [1].

For the compound `OCCCc1cc(F)c(OCc2c(-c3ccc(Cl)cc3)csc2C(F)(F)F)c(F)c1` [Cpd 46, 3-(4-[[4-(4-chlorophenyl)-2-(trifluoromethyl)thiophen-3-yl]methoxy]-3,5-difluorophenyl)propan-1-ol], the EC50 on Human GPR120 short form is 165 nM; in assay [1], 125 nM.

For `CCc1ccc(-c2sccc2COc2ccc(CCC(=O)O)c(F)c2F)cc1` [Cpd 48, 3-(4-((2-(4-ethylphenyl)thiophen-3-yl)methoxy)-2,3-difluorophenyl)propanoic acid], the EC50 was found to be 168 nM on Human GPR120 short form and 236 nM in assay [1].

On to `CCc1ccc(-c2sccc2COc2ccc(CCC(=O)O)c(C)c2C)cc1` [Cpd 49, 3-(4-((2-(4-ethylphenyl)thiophen-3-yl)methoxy)-2,3-dimethylphenyl)propanoic acid], for which the results for the EC50 (on Human GPR120 short form; in assay [1]) were 170 nM and 304 nM, respectively.

On to `O=C(O)CCc1cc(F)c(OCc2c(-c3ccc(Cl)cc3)csc2C(F)(F)F)c(F)c1F` [Cpd 50, 3-(4-((4-(4-chlorophenyl)-2-(trifluoromethyl)thiophen-3-yl)methoxy)-2,3,5-trifluorophenyl)propanoic acid], for which the EC50 at Human GPR120 short form worked out at 171 nM; in assay [1], 100 nM.

Take `O=C(O)CCc1cc(F)c(OCc2c(-c3ccc4c(c3)CCO4)csc2C(F)(F)F)c(F)c1` [Cpd 51, 3-(4-((4-(2,3-dihydrobenzofuran-5-yl)-2-(trifluoromethyl)thiophen-3-yl)methoxy)-3,5-difluorophenyl)propanoic acid]: the EC50 on Human GPR120 short form stood at 172 nM; in assay [1] it was 213 nM.

Turning to `CCc1ccc(-c2sccc2COc2c(F)cc(CCC(=O)O)cc2F)cc1` [Cpd 52, 3-(4-((2-(4-ethylphenyl)thiophen-3-yl)methoxy)-3,5-difluorophenyl)propanoic acid], the EC50 was 181 nM at Human GPR120 short form and 344 nM in assay [1].

As to `CCc1ccc(-c2cscc2COc2c(F)cc(CCC(=O)O)cc2F)cc1` [Cpd 53, 3-(4-((4-(4-ethylphenyl)thiophen-3-yl)methoxy)-3,5-difluorophenyl)propanoic acid], the EC50 was 191 nM at Human GPR120 short form and 668 nM in assay [1].

On to `OCCCc1cc(F)c(OCc2c(-c3ccc(Cl)cc3)csc2C(F)(F)F)c(F)c1F` [Cpd 56, 3-(4-((4-(4-chlorophenyl)-2-(trifluoromethyl)thiophen-3-yl)methoxy)-2,3,5-trifluorophenyl)propan-1-ol], for which the EC50 at Human GPR120 short form turned out to be 237 nM; in assay [1] it was 108 nM.
